Data reported in PMC10525585, “Evaluation of the Antibacterial Effect of Aurone-Derived Triazoles on Staphylococcus aureus” (Antibiotics, 2023).

Legend:
MRSA = test: Checkerboard assay with antibiotics; assay type: cell-based, Staphylococcus aureus; details: smallest ratio; <0.5 synergy, 0.5–4 no interaction, >4 antagonism
Experimental: (§1) This preparation for the checkerboard assay was analogous to the antibacterial assay described above in that the standard (5 × 10^5 CFU/mL) concentration of bacteria in media was mixed with 2-fold dilutions of antibacterial agents to verify their inhibition potential. […] Control wells contained 10 µL of bacteria with 90 µL of CAMHB, and the negative control was bacteria in 1% DMSO and CAMHB. Incubation, staining with PrestoBlue^TM, and assessing cell viability are as described for the antibacterial assay above.

MSSA = test: Checkerboard assay with antibiotics; assay type: cell-based, Staphylococcus aureus; details: smallest ratio; <0.5 synergy, 0.5–4 no interaction, >4 antagonism
Experimental: as §1

[1] = Cytotoxicity assay (PrestoBlue); details: human, HeLa cells (ATCC CCL-2)
Experimental: Human HeLa epithelial (ATCC CCL-2) and HepG2 liver epithelial (ATCC HB-8065) cell lines were used to determine toxicity of AT compounds for mammalian cells. The cells were grown in a complete culture medium of RPMI 1640 with 10% heat-inactivated fetal bovine serum (FBS) at 37 °C in 5% CO2 (95% room air) in a humidified incubator. Before use, attached cell monolayers, which had reached at least 90% confluency, were detached by trypsinization with trypsin-EDTA (0.25%) and resuspension in fresh complete culture media. For experiments, the stock concentration of 1 × 10^5 cells/mL (to achieve a final 1 × 10^4 cells/well concentration) was achieved by counting the trypsinized cells and adjusting to their final concentration for assays.
HeLa or HepG2 cells were pre-seeded into a 96-well transparent, flat bottom plate by adding a volume of 100 µL stock cell concentration (1 × 10^5 cells/mL) in complete culture media to each well. The plate was incubated overnight at 37 °C in a 5% CO2 (95% room air) humidified incubator. After the incubation and before mixing in the AT compounds, a 100 µL volume of fresh complete culture media was added to the pre-seeded wells. The 2-fold dilutions of AT compounds in triplicates were prepared on a separate 96-well plate. Once the dilution plate was prepared, dilutions were transferred into the pre-seeded plate to achieve the same concentrations of ATs as for the inhibition assay described above. The final inoculated plate was then returned to the 5% CO2 (95% room air) humidified incubator for an additional 24 h of incubation with the diluted ATs. Controls were blank wells containing only media, wells with cells and DMSO in complete culture media, and wells with cells and complete culture media only. Measurement of toxicity was analogous to the inhibition assay except that 20 µL of PrestoBlue^TM was used and the incubation was 3–6 h before reading with the plate-reader. Cytotoxicity concentration (CC50) was defined as the concentration where half of the cells remained viable and was computed using GraphPad Prism.

pre-formed MSSA biofilms = test: Biofilm assay (BacLight live/dead confocal imaging); assay type: cell-based, Staphylococcus aureus; details: for Fold Change in Dead Cells / Fold Change in Total Cells / Percent Change in Dead Cells / Percent Change in Total Cells: versus mock-treated control; for Dead Cell Count / Living Cell Count / Total Cell Count: 48 h biofilm treated 24 h with 100 µM AT; for Dead Cell Count: control 96; for Living Cell Count: control 2124; for Total Cell Count: control 2220
Experimental: To prepare AT-treated cultures, overnight bacterial cultures were used (adjusted to 1 × 10^8 CFU/mL) in BHI medium to grow biofilm in 35 mm MatTEK dishes with a 20 mm glass bottom well by adding 1500 µL of overnight bacteria per dish. The dishes were incubated at 37 °C in a humidified incubator for 48 h. The old media was refreshed by adding 1500 µL of BHI for the control, or the AT mixture (15 µL of AT stock with 1485 µL BHI to achieve 100 µM AT concentration), or DMSO mixture (15 µL DMSO with 1485 µL BHI) for negative control. The dishes were then incubated in a humidified incubator for an additional 24 h at 37 °C. The media was removed, and cells were washed twice with 500 µL PBS, followed by the addition of 50 µL BacLight^TM with 250 µL PBS for 15 min. Biofilms were imaged using a Zeiss AxioObserver microscope with an LSM700 confocal module (Carl Zeiss Microscopy, White Plains, NY, USA). To assess biofilm disruption, Fiji software version 2.14.0 was used. Initially, raw microscope images were imported, separating the color channels, as dead cells were stained fluorescent red and living cells were stained green. To allow particle counts, the color saturation threshold was set using the RenyiEntropy option to clear the images from potential noise. This step was followed by watershed separation, which separates potentially overlapping cells, and then particle analysis was completed using the 0.5–1.5 micron size as a guide. Biofilm disruption was quantified both by reductions in total bacterial cell numbers and increases in dead cell numbers.

[2] = Cytotoxicity assay (PrestoBlue); assay type: cell-based, Human; details: human, HepG2 cells (ATCC HB-8065), Table 1 and text; 24 h incubation
[3] = system: HepG2 (ATCC HB-8065) cells; test: Cytotoxicity assay (PrestoBlue); assay type: cell-based, Human; details: Table 1 and text; 24 h incubation; read-out: CC50 (µM) HepG2
[4] = CC50 (µM) HeLa, Table 1 and text, 24 h incubation

Row | Compound | FICi with Daptomycin, MRSA (MRSA) | FICi with Vancomycin, MRSA (MRSA) | FICi with Daptomycin, MSSA (MSSA) | FICi with Vancomycin, MSSA (MSSA) | CC50 at 24 h [1, 4] [µM] | CC50 at 24 h ([1]; CC50 HeLa (µM), Table S1) [µM] | Fold Change in Dead Cells (pre-formed MSSA biofilms; 100 µM AT, 24 h) | Fold Change in Total Cells (pre-formed MSSA biofilms; 100 µM AT, 24 h) | Percent Change in Dead Cells (pre-formed MSSA biofilms; 100 µM AT, 24 h) [%] | Percent Change in Total Cells (pre-formed MSSA biofilms; 100 µM AT, 24 h) [%] | Dead Cell Count (pre-formed MSSA biofilms) | Living Cell Count (pre-formed MSSA biofilms) | Total Cell Count (pre-formed MSSA biofilms) | CC50 at 24 h [2] [µM] | disruption of MSSA biofilms (pre-formed MSSA biofilms; pre-formed biofilm, 100 µM AT, 24 h) | CC50 [3] [µM]
1 | O=C(c1ccccc1O)c1n[nH]nc1-c1ccc(Br)s1 [AT137] | 0.19 | 1.13 | 0.38 | 1.5 | 2.84 | 12.7 | -0.8021 | -0.9347 | -80.21 | -93.47 | 19 | 126 | 145 | 39.8 | – | –
2 | O=C(c1ccccc1O)c1n[nH]nc1-c1cccc(C(F)(F)F)c1 [AT116] | 0.05 | 1.03 | 0.28 | – | 56.8 | 11.7 | 2.417 | -0.4212 | 241.67 | -42.12 | 328 | 957 | 1285 | 50.9 | successfully disrupted MSSA biofilms | –
3 | O=C(c1ccccc1O)c1n[nH]nc1-c1ccc(Cl)cc1 [AT106] | 0.05 | 0.52 | 0.25 | 0.57 | > 60 | 16.2 | -0.75 | -0.8914 | -75.00 | -89.14 | 24 | 217 | 241 | > 60 | – | 70.7
